Results as given in patent US6930088B2, “Conformationally constrained backbone cyclized somatostatin analogs” (Peptor Ltd., priority 1998, dated 2005).
Entries after “also recorded” stand apart in the source; their conditions may differ.

Assays:
SSTR-3 = biological target: T1, SSTR-3 (Homo sapiens, UniProt P32745); assay: Inhibition of 125I-Tyr11-SRIF binding to membrane preparations expressing SSTR-3; settings: read-out: Percent inhibition of SRIF-14 binding
T1 construct: expressed in transfected cells
Protocol: The somatostatin analogs were tested for their potency in inhibition of the binding of ^125I-Tyr^11-SRIF (based on the method described by Raynor et. al., Molecular Pharmacology, 1993, 43, 838-844) to membrane preparations expressing the transmembranal somatostatin receptors (SSTR-1, 2, 3, 4 or 5). The receptor preparations used for these tests were either from the cloned human receptors selectively and stably expressed in Chinese Hamster Ovary (CHO) cells or from cell lines naturally expressing the SSTRs. […] The binding reactions were filtered, the filters were washed and the bound radioactivity was counted in gamma counter. Non specific binding was defined as the radioactivity remaining bound in the presence of 1 μM unlabeled SRIF-14.
(§1) In order to validate positive signals of the binding tests, and to eliminate non-specific signals, samples of irrelevant peptides, such as GnRH, that were synthesized and handled using the same procedures, were tested in the same assays as negative control samples. These samples had no binding activity in any of the assays. Results are shown below in Tables 5 and 6 and FIG. 1.

Opiate receptors = assay: NovaScreen nonspecific binding, Opiate receptors; settings: tested at 100 nM; FIG. 2
From the text: NovaScreen (Hanover, Md.) performed an assessment for nonspecific binding to various G-protein coupled receptor families. Binding studies to Neurokinin, Opiate and Muscarinic receptors were based on a comparison between the native hormone Somatostatin, Ocreotide and PTR 3173.

[1] = Pharmacokinetics following IV & SC administration; settings: for dose excreted: urine
glucagon release = assay: In-vivo effect on glucagon release; set-up: species or system Wistar male rats
Protocol: In-vivo determination of the release of glucogon as a result of peptide administration was measured in Wistar male rats.
Time course profiles for glucagon release under constant experimental conditions were measured.
Male Wistar rats were fasted overnight. Animals were anesthetized with Nembutal (IP, 60 mg/kg). Ten minutes after anesthesia, drugs were administrated S.C. at 0.01-100 microgram/kg dose. Stimulation of glucagon secretion was performed by I.V. administration of L-arginine, 0.5 g/kg, 5 minutes before blood collection from portal vein. Hormone concentration was measured by RIA.

[2] = tested on: human peripheral blood lymphocytes (PBL); assay: Human PBL proliferation assay (mitogenicity); type: cell-based; settings: PBL proliferation assays
From the text: PTR 3173 was furthermore found to be not mitogenic for human lymphocytes in human peripheral blood lymphocytes (PBL) proliferation assays.

[3] = Initial safety testing in dogs; type: in vivo; settings: dose 10,000-fold higher then the efficacious dose for inhibiting Growth hormone release
Protocol: (§2) PTR 3173 was tested in various species for its initial safety properties. Under the European Pharmacopoeia requirements for safety testing, it was declared a safe drug candidate at this stage of development.

[4] = tested on: Chromogranin A release from BON-1; assay: Inhibition of Chromogranin A release from BON-1; type: cell-based; settings: human Carcinoid cell line BON-1
From the text: Assessment of Chromogranin A release from BON-1 is an important assay aimed at identifying potential anti Carcinoid drugs. Chromagranin A is one of the principal mediators in degranulation of tumor granules, which secrete excessive amounts of vasoactive substances from Carcinoid tumors.

[5] = tested on: growth hormone (GH) release; assay: In-vivo inhibition of growth hormone release; set-up: species or system Wistar male rats
Protocol: Inhibition of growth hormone (GH) release as a result of peptide administration was measured in Wistar male rats.
Adult male Wistar rats weighing 200-250 g, were maintained on a constant light-dark cycle (light from 8:00 to 20:00 h), temperature (21±3° C.), and relative humidity (55±10%). Laboratory chow and tap water were available ad libitum. On the day of the experiment, rats were anesthetized with Nembutal (IP, 60 mg/kg). Ten minutes after anesthesia, drugs were administered S.C. at 0.01-100 microgram/kg dose. Stimulation of GH was performed by I.V. administration of 0.5 g/kg of L-Arginine through femoral vein. Sampling was carried out following 5 minutes of stimulation, at 15 or 30 minutes after peptide administration. Blood samples were collected form abdominal vena-cava into tubes containing heparin (15 units per ml of blood) and centrifuged immediately. Plasma was separated and kept frozen at −20° C. until assayed. Rat growth hormone (rGH) [^125I] levels were determined by means of a radioimmunoassay kit (Amersham). The standard in this kit has been calibrated against a reference standard preparation (NIH-RP2) obtained from the National Institute of Diabetes and Digestive and Kidney Diseases. All samples were measured in duplicate.

[6] = tested on: human Carcinoid BON-1 cells; assay: Inhibition of cAMP in human Carcinoid BON-1 cells; type: cell-based; settings: following Forskolin stimulation
From the text: The activation of SST-R5 leads to the reduction of Adenylate Cyclase activity. Somatostatin receptors including type-5 receptors are expressed in the human Carcinoid derived cell line BON-1. This human cell culture served as an in-vitro discovery assay for novel Carcinoid therapeutics. Interaction of somatostatin analogs with Somatostatin receptors expressed in this system subsequently affects cellular functionality of BON-1.

[7] = tested on: somatostatin receptors (SSTR-1, 2, 3, 4 or 5); assay: Somatostatin receptor subtype selectivity of binding; set-up: species or system human; settings: in words
Protocol: The somatostatin analogs were tested for their potency in inhibition of the binding of ^125I-Tyr^11-SRIF (based on the method described by Raynor et. al., Molecular Pharmacology, 1993, 43, 838-844) to membrane preparations expressing the transmembranal somatostatin receptors (SSTR-1, 2, 3, 4 or 5). The receptor preparations used for these tests were either from the cloned human receptors selectively and stably expressed in Chinese Hamster Ovary (CHO) cells or from cell lines naturally expressing the SSTRs. Typically, cell membranes were homogenated in Tris buffer in the presence of protease inhibitors and incubated for 30-40 minutes with ^125I-Tyr^11-SRIF with different concentrations of the tested sample. The binding reactions were filtered, the filters were washed and the bound radioactivity was counted in gamma counter. Non specific binding was defined as the radioactivity remaining bound in the presence of 1 μM unlabeled SRIF-14.
as §1

[8] = Initial safety testing in rodents; type: in vivo; settings: dose 10,000-fold higher then the efficacious dose for inhibiting Growth hormone release
Protocol: as §2

[9] = Table 4, physiological selectivity

T1 sequence (P32745 whole entry): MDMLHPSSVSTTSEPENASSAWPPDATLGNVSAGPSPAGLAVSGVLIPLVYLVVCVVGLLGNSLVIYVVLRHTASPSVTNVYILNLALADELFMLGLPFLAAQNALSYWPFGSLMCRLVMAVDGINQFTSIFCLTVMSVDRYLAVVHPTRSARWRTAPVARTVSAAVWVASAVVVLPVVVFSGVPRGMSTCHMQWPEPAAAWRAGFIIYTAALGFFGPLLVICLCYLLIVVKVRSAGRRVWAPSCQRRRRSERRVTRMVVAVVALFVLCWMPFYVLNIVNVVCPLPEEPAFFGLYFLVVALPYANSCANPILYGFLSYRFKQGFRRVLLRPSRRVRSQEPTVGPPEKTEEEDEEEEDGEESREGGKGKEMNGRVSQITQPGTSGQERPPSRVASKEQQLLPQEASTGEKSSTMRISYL

`C[C@@H](O)[C@@H]1NC(=O)[C@H](CCCCN)NC(=O)[C@@H](Cc2c[nH]c3ccccc23)NC(=O)[C@H](Cc2c[nH]c3ccccc23)NC(=O)[C@H](Cc2ccccc2)NC(=O)CCCNC(=O)CCCN(CC(N)=O)C(=O)[C@H](Cc2ccccc2)NC1=O` [PTR 3173, GABA*-Phe-Trp-(D)Trp-Lys-Thr-Phe-Gly(C3)-X] gave an inhibition at 10 pM (SSTR-3) of 2%, an inhibition at 0.0001 µM (SSTR-3) of 1% and an inhibition at 0.001 µM (SSTR-3) of 1%. It also gave an inhibition at 0.01 µM (SSTR-3) of 4%, an inhibition at 0.1 µM (SSTR-3) of 50% and an inhibition at 1 µM (SSTR-3) of 89%. The “binding to Opiate receptors” value (Opiate receptors) was “did not bind”, the “Clearance” value ([1]; SC, Conscious Wistar rats) was 13.3 mL/min/kg and the Clearance ([1]; Wistar, rat, in vivo, iv) was 13 mL/min/kg. It also gave a Vd ([1]; Wistar, rat, in vivo, iv) of 0.653 L/kg, a half-life ([1]; Wistar, rat, in vivo, iv, T½β (min) circulating half life, Conscious Wistar rats) of 0.517 h and a bioavailability ([1]; Wistar, rat, in vivo, sc) of 99.6%. The half-life ([1]; Wistar, rat, in vivo, sc, T½β (min) circulating half life, Conscious Wistar rats) was 2.83 h, the half-life ([1]; Wistar, rat, in vivo, sc, circulatory half-life, subcutaneous administration to rats) was about 3 h and the dose excreted ([1]; Wistar, rat, iv) was 10.3%. For the same molecule, the dose excreted ([1]; Wistar, rat, sc) was 15.9%, the pharmacokinetic profile ([1]; subcutaneous administration, animals) was “flip flop (a slow release kinetic) pharmacokinetcs” and the “effect on glucagon levels compare to control” value (glucagon release; 100 micrograms per kilogram, FIG. 4) was “statistically significant difference in glucagon levels compare to control”. The “Glucagon ID50” value (glucagon release; [9]) was over 100 µg/kg, the “effect on glucagon (general statement)” value (glucagon release; in words, no dose stated) was “considerably lower affect on the release of glucagon than Octreotide; also recorded: much less activity on glucagon” and the “GH Glucagon” value (glucagon release; ratio of ID50 values, Table 4) was >1,000. The “mitogenicity for human lymphocytes” value [2] was “not mitogenic”, the toxicity signs [3] was “No toxicity signs” and the “inhibition of Chromogranin A release” value [4] was “inhibits Chromogranin A release; also recorded: significant anti-release effect; also recorded: equivalent potency with the native hormone Somatostatin”. For the same molecule, the “effect on growth hormone release” value ([5]; 100 micrograms per kilogram, L-arginine stimulation, Nembutal anesthesia, FIG. 3) was “equipotent inhibitors of growth hormone release in comparison to Octreotide”, the “GH ID50” value [5, 9] was 0.1 µg/kg and the “effect on growth hormone (general statement)” value ([5]; in words, no dose stated) was “significant inhibition with prolonged duration of action on the Growth Hormone-IGF-1 axis of a similar magnitude as the drug Octreotide; also recorded: potent inhibitor of growth hormone”. For the same molecule, the “inhibition of cAMP production” value [6] was “equipotent to clinically used drug Octreotide”, the “somatostatin receptor subtype selectivity” value [7] was “selective for receptors 2 and 5; also recorded: improved selectivity of binding to the SST receptor subtype SST-R2 and SST-R5” and the “somatostatin receptor subtype selectivity” value ([7]; listed as PTR-3173) was “SST-R2+SST-R5”. For the same molecule, the toxicity signs [8] was “No toxicity signs”.
